Reference: patent US10905118B2, “Triscationic amphiphile compounds, compositions, and methods for making same” (James Madison Innovations, Inc., priority 2014, dated 2021)

What was measured:
[1] = Isothermal titration calorimetry: critical aggregation concentration and thermodynamics of aggregation; assay type: physicochemical; details: for −TΔSmic: Gibbs-Helmholtz equation; for −TΔSmic / ΔGmic: double-tailed series; for ΔGmic: approximated with RT ln(CAC/55.5); for CMC / ΔHmic: pure water, double-tailed M-P and M-1 series; for −TΔSagg term (sign, in words): Table 1
Method: Isothermal titration calorimetry (ITC) was used to determine the critical aggregation concentration (CAC) and the thermodynamic parameters at 37° C. associated with aggregate formation for each double-tailed amphiphile for the M-P and M-1 series, as shown in Table 1.
A Nano ITC was used to measure the heat change associated with the deaggregation of amphiphiles via power compensation. A concentrated aqueous solution of amphiphile (>>CAC) was titrated into a thermally controlled sample cell, initially containing pure water, in a series of discrete injections. Isothermal titration calorimetry was used to determine the critical aggregation concentration (CAC) and ΔHagg. Shown in FIG. 5 is the heat rate associated with each injection versus time for 9 (M-1,14,14). Shown in FIG. 6 is the integration of the heat per injection normalized by the number of moles of each injection versus the increasing concentration of amphiphile in the well. In FIG. 6, inset, CAC is determined by calculating the first derivative the heat curve.
During initial injections (Range I), measured heat changes are due to both the dilution of aggregates and deaggregation. This can be observed in the first 10 injections, where aggregates absorbed heat and disassociated into dissolved monomers. The heat change produced by each injection was approximately constant in this range. In Range II, injected aggregates don't fully dissociate, reducing the total absorbed heat for each subsequent injection. At concentrations well above the CAC (Range III), absorbed heat is attributed only to the dilution of aggregates and is approximately constant. […] CAC and thermodynamic data were not determined for the amphiphiles with the shortest tails [1 (M-P,8,8) and 6 (M-1,8,8)] because the heat evolved during injection was […] the threshold of the instrument.
The difference between the average heat of injections in Range I, representing the total heat due to the dilution of aggregates and deaggregation, and the average heat of injections in Range III, representing the heat due solely to the dilution of aggregates, gives the heat of deaggregation, ΔHdeagg. The ΔHdeagg for compound 9 (M-1,14,14) is 37 kJ/mol, corresponding to a heat of aggregate formation, ΔHagg, of −37 kJ/mol (ΔHagg=−ΔHdeagg).
The ΔGagg can be approximated for the aggregation of nonionic amphiphiles by the equation: ΔGagg=RT ln(CAC/55.5) (3)
where m is the concentration of counterions that associate with a aggregate and n is the number of monomers that associate to form an aggregate. […] BBA-Biomembranes. 2000, 1508, 69-85.)
The entropy of aggregation (ΔSagg) is dictated by a combination of entropic factors that favor or disfavor aggregate formation and can be approximated using the Gibbs-Helmholtz equation: ΔGagg=ΔHagg−TΔSagg (5)
CAC and ΔHagg were determined using a Nano-ITC (TA-Instruments). Prior to each experiment the sample cell was washed with dH2O (300 mL), ethanol (100 mL), dH2O (300 mL) and nanopure water (200 mL). Next, 950 μL of nanopure water was added to the sample cell. A concentrated aqueous solution (>>CAC) of amphiphile was prepared and equilibrated at 37° C. A 250 μL syringe was filled with the aqueous solution, and loaded into the Nano ITC. Multiple single injections in aliquots of 5 μL were injected into the sample cell with time intervals varying from 300 s to 1400 s. Samples were continuously stirred (300 rpm) throughout the titration. The Nano-Analyze program (TA-Instruments) was used to analyze the data. CAC and ΔHagg values reported are the average of two or more repeat experiments for each amphiphile.

[2] = test system: Pseudomonas aeruginosa; assay: Minimum inhibitory concentration, P. aeruginosa; assay type: cell-based, Pseudomonas aeruginosa ATCC 27853; details: Mueller-Hinton Broth, 37° C., 72 h
Method: (§1) The MIC values of all compounds from both double-tailed series were determined for four Gram-positive (Staphylococcus aureus, Enterococcus faecalis, Streptococcus agalactiae, and Bacillus cereus) and two Gram-negative (Escherichia coli and Pseudomonas aeruginosa) strains, which are shown in Table 3.
(§2) The Gram-positive bacterial strains used tested were Staphylococcus aureus subsp. aureus ATCC® 29213™, Enterococcus faecalis ATCC® 29212™, Bacillus cereus, and Streptococcus agalactiae J48.^58 The Gram-negative bacterial strains used were Escherichia coli ATCC® 25922™ and Pseudomonas aeruginosa ATCC® 27853™. All strains were grown in 1× Mueller-Hinton Broth at 37° C. for 12-24 h. For the MIC and combination studies, bacterial suspensions were prepared by diluting overnight cultures to 5×10^6 CFU/mL in 2× Mueller-Hinton Broth, so that when amphiphile solutions are added the final broth strength is 1×.
(§3) The methods used to determine the MIC and MBC were performed as previously described and followed the standards set forth by the Clinical and Laboratory Standards Institute (See Ladow, J. E.; Warnock, D. C.; Hamill, K. M.; Simmons, K. L.; Davis, R. W.; Schwantes, C. R.; Flaherty, D. C.; Willcox, J. A. L.; Wilson-Henjum, K.; Caran, K. L.; Minbiole, K. P. C.; Seifert, K. Bicephalic amphiphile architecture affects antibacterial activity. Eur. J. Med. Chem. 2011, 46, 4219-4226 and P. A. Wayne Methods for dilution antimicrobial tests for bacteria that grow aerobically. 2009.). Briefly, compounds were serially diluted and 100 μL of each dilution were added to the wells of a 96-well flat-bottomed microtiter plate in triplicate. After adding 100 μL of the bacterial cell suspension, the plates were incubated at 37° C. for 72 h. […] The MIC was considered to be bactericidal if the MBC was the same concentration or one concentration higher in the dilution series as the MIC, per Motyl, M.; Dorso, K.; Barrett, J.; Giacobbe, R. Basic microbiological techniques used in antibacterial drug discovery. Curr. Protoc. Pharmacol. 2006, Chapter 13.

[3] = test system: Streptococcus agalactiae; assay: Minimum inhibitory concentration, S. agalactiae; assay type: cell-based, Streptococcus agalactiae J48; details: Mueller-Hinton Broth, 37° C., 72 h
Method: as §1, §2, §3

[4] = test system: Staphylococcus aureus; assay: Minimum inhibitory concentration, S. aureus; assay type: cell-based, Staphylococcus aureus subsp. aureus ATCC 29213; details: Mueller-Hinton Broth, 37° C., 72 h
Method: as §1, §2, §3

[5] = test system: Escherichia coli; assay: Minimum inhibitory concentration, E. coli; assay type: cell-based, Escherichia coli ATCC 25922; details: Mueller-Hinton Broth, 37° C., 72 h
Method: as §1, §2, §3

[6] = test system: Bacillus cereus; assay: Minimum inhibitory concentration, B. cereus; assay type: cell-based; details: Mueller-Hinton Broth, 37° C., 72 h
Method: as §1, §2, §3

[7] = test system: Enterococcus faecalis; assay: Minimum inhibitory concentration, E. faecalis; assay type: cell-based, Enterococcus faecalis ATCC 29212; details: Mueller-Hinton Broth, 37° C., 72 h
Method: as §1, §2, §3

−TΔSmic ([1]; 37° C.) [kcal/mol]	ΔGmic ([1]; 37° C.) [kcal/mol]	CMC ([1]; ITC, 37° C.) [mM]	ΔHmic ([1]; ITC, 37° C.) [kcal/mol]	−TΔSagg term (sign, in words) [1]	MIC P. aeruginosa (G−) [2] [µM]	MIC S. agalactiae (G+) [3] [µM]	MIC S. aureus (G+) [4] [µM]	MIC E. coli (G−) [5] [µM]	MIC B. cereus (G+) [6] [µM]	MIC E. faecalis (G+) [7] [µM]	ΔHagg ([1]; ITC, 37° C.) [kcal/mol]	ΔHdeagg (heat of deaggregation) ([1]; ITC, 37° C., Range I minus Range III) [kcal/mol]	Structure (SMILES)
2.39	-5.02	14	-2.63	negative	63	8	2	16	8	8	–	–	CCCCCCCCCC[N+](C)(C)Cc1cc(C[n+]2ccccc2)cc(C[N+](C)(C)CCCCCCCCCC)c1.[Br-].[Br-].[Br-] [Compound 2]
-5.26	-7.89	0.16	-13.1	positive	>250	8	16	63	16	32	–	–	CCCCCCCCCCCCCCCC[N+](C)(C)Cc1cc(C[N+](C)(C)C)cc(C[N+](C)(C)CCCCCCCCCCCCCCCC)c1.[Br-].[Br-].[Br-] [Compound 10]
-1.91	-6.93	0.61	-8.84	positive	125	2 to 4	4 to 8	8	4	4	-8.84	8.84	CCCCCCCCCCCCCC[N+](C)(C)Cc1cc(C[N+](C)(C)C)cc(C[N+](C)(C)CCCCCCCCCCCCCC)c1.[Br-].[Br-].[Br-] [Compound 9]
–	–	–	–	–	>250	>250	>250	>250	>250	>250	–	–	CCCCCCCC[N+](C)(C)Cc1cc(C[n+]2ccccc2)cc(C[N+](C)(C)CCCCCCCC)c1.[Br-].[Br-].[Br-] [Compound 1]
-2.08	-7.17	0.56	-9.08	positive	63	4	4	16	8	4	–	–	CCCCCCCCCCCCCC[N+](C)(C)Cc1cc(C[n+]2ccccc2)cc(C[N+](C)(C)CCCCCCCCCCCCCC)c1.[Br-].[Br-].[Br-] [Compound 4]
–	–	–	–	–	>250	>250	>250	>250	>250	>250	–	–	CCCCCCCC[N+](C)(C)Cc1cc(C[N+](C)(C)C)cc(C[N+](C)(C)CCCCCCCC)c1.[Br-].[Br-].[Br-] [Compound 6]
-2.2	-7.89	0.18	-10	positive	>250	4	32	125	32	32	–	–	CCCCCCCCCCCCCCCC[N+](C)(C)Cc1cc(C[n+]2ccccc2)cc(C[N+](C)(C)CCCCCCCCCCCCCCCC)c1.[Br-].[Br-].[Br-] [Compound 5]
1.58	-5.26	12	-3.59	negative	>250	4	16	125	8	8	–	–	CCCCCCCCCC[N+](C)(C)Cc1cc(C[N+](C)(C)C)cc(C[N+](C)(C)CCCCCCCCCC)c1.[Br-].[Br-].[Br-] [Compound 7]
0.0196	-6.21	2.5	-6.21	negative	16	2	2	4 to 8	2	2	–	–	CCCCCCCCCCCC[N+](C)(C)Cc1cc(C[N+](C)(C)C)cc(C[N+](C)(C)CCCCCCCCCCCC)c1.[Br-].[Br-].[Br-] [Compound 8]

Structure (SMILES)	−TΔSmic ([1]; 37° C.) [kcal/mol]	ΔGmic ([1]; 37° C.) [kcal/mol]	CMC ([1]; ITC, 37° C.) [mM]	ΔHmic ([1]; ITC, 37° C.) [kcal/mol]	−TΔSagg term (sign, in words) [1]	MIC P. aeruginosa (G−) [2] [µM]	MIC S. agalactiae (G+) [3] [µM]	MIC S. aureus (G+) [4] [µM]	MIC E. coli (G−) [5] [µM]	MIC B. cereus (G+) [6] [µM]	MIC E. faecalis (G+) [7] [µM]	ΔHagg ([1]; ITC, 37° C.) [kcal/mol]	ΔHdeagg (heat of deaggregation) ([1]; ITC, 37° C., Range I minus Range III) [kcal/mol]
CCCCCCCC[N+](C)(C)Cc1cc(C[N+](C)(C)C)cc(C[N+](C)(C)C)c1.[Br-].[Br-].[Br-] [Compound S1]	–	–	–	–	–	>250	>250	>250	>250	>250	>250	–	–
CCCCCCCCCCCC[N+](C)(C)Cc1cc(C[N+](C)(C)C)cc(C[N+](C)(C)C)c1.[Br-].[Br-].[Br-] [Compound S3]	–	–	–	–	–	>250	125	63	>250	63	250	–	–
CCCCCCCCCC[N+](C)(C)Cc1cc(C[N+](C)(C)C)cc(C[N+](C)(C)C)c1.[Br-].[Br-].[Br-] [Compound S2]	–	–	–	–	–	>250	125	>250	>250	125	250	–	–
